Test results published in ChEMBL document CHEMBL1944516, “Novel hybrid molecules based on 15-membered azalide as potential antimalarial agents” (Eur J Med Chem, 2012).
Values after ≈ are worked out from the molar mass of the structure shown.

Key:
[1] = tested on: Streptococcus pyogenes; experiment: Antibacterial activity against clinical isolate Streptococcus pyogenes 3565; format: functional
[2] = tested on: Staphylococcus aureus; experiment: Antibacterial activity against Staphylococcus aureus ATCC 13709 by broth microdilution method; format: functional
[3] = tested on: HepG2; experiment: Cytotoxicity against human HepG2 cells after 24 hrs by MTS assay; format: cell-based; details: HepG2, 24 h
[4] = tested on: Plasmodium falciparum; experiment: Ratio of azithromycin IC50 to compound IC50 for chloroquine-sensitive Plasmodium falciparum 3D7A; format: functional
[5] = tested on: Plasmodium falciparum; experiment: Antimalarial activity against chloroquine-sensitive Plasmodium falciparum 3D7A infected in human A-positive erythrocytes assessed as inhibition of [3H]-hypoxanthine incorporation after 48 hrs by semi-automated microdilution technique; format: functional, organism-based
[6] = tested on: Plasmodium falciparum; experiment: Ratio of azithromycin IC50 to compound IC50 for chloroquine and pyrimethamine-resistant Plasmodium falciparum W2; format: functional
[7] = tested on: Streptococcus pneumoniae; experiment: Antibacterial activity against clinical isolate Streptococcus pneumoniae SP030; format: functional
[8] = tested on: Moraxella catarrhalis; experiment: Antibacterial activity against Moraxella catarrhalis ATCC 23246 by broth microdilution method; format: functional
[9] = tested on: Haemophilus influenzae; experiment: Antibacterial activity against Haemophilus influenzae ATCC 49247 by broth microdilution method; format: functional
[10] = tested on: Plasmodium falciparum; experiment: Antimalarial activity against chloroquine and pyrimethamine-resistant Plasmodium falciparum W2 infected in human A-positive erythrocytes assessed as inhibition of [3H]-hypoxanthine incorporation after 48 hrs by semi-automated microdilution technique; format: functional, organism-based
[11] = tested on: Plasmodium falciparum; experiment: Ratio of chloroquine IC50 to compound IC50 for […] Plasmodium falciparum W2; format: functional
[12] = Clearance in CD1 mouse at 12.5 mg/kg, iv and 12.5 mg/kg, po by LC-MS/Ms analysis; format: ADME, organism-based; details: in vivo
[13] = Ratio of drug level in blood to plasma of CD1 mouse at 12.5 mg/kg, iv and 12.5 mg/kg, po by LC-MS/Ms analysis; format: ADME, organism-based
[14] = Volume of distribution at steady state in CD1 mouse at 12.5 mg/kg, iv and 12.5 mg/kg, po by LC-MS/Ms analysis; format: ADME, organism-based; details: in vivo, read-out: Vdss
[15] = tested on: Liver; experiment: Intrinsic clearance in mouse liver microsomes assessed per gram of liver at 1 uM after 60 mins by LC-MS/Ms analysis; format: ADME, Microsome; details: 1 h
[16] = Oral bioavailability in CD1 mouse at 12.5 mg/kg by LC-MS/Ms analysis; format: ADME, organism-based; details: in vivo
[17] = tested on: Liver microsomes; experiment: Intrinsic clearance in human liver microsomes assessed per gram of liver at 1 uM after 60 mins by LC-MS/Ms analysis; format: ADME, Microsome; details: 1 h
[18] = tested on: Liver microsomes; experiment: Intrinsic clearance in rat liver microsomes assessed per gram of liver at 1 uM after 60 mins by LC-MS/Ms analysis; format: ADME, Microsome; details: 1 h
[19] = tested on: Mus musculus; experiment: Dose normalized AUC in CD1 mouse at 12.5 mg/kg, po by LC-MS/Ms analysis; format: ADME, organism-based; set-up: dose 12.5 mg/kg, route oral; details: in vivo
[20] = Half life in CD1 mouse at 12.5 mg/kg, iv and 12.5 mg/kg, po by LC-MS/Ms analysis; format: ADME, organism-based; details: in vivo

| Compound | MIC [1] | MIC [2] | IC50 [3] | Ratio IC50 [4] | IC50 [5] | Ratio IC50 [6] | MIC [7] | MIC [8] | MIC [9] | IC50 [10] | Ratio IC50 [11] | clearance [12] | blood plasma ratio [13] | Vd [14] | CLint [15] | bioavailability [16] | CLint [17] | CLint [18] | AUC/dose [19] | half-life [20] |
| --- | --- | --- | --- | --- | --- | --- | --- | --- | --- | --- | --- | --- | --- | --- | --- | --- | --- | --- | --- | --- |
| CC[C@H]1OC(=O)[C@H](C)[C@@H](O)[C@H](C)[C@@H](O[C@@H]2O[C@H](C)C[C@H](N(C)CCCNC(=O)CCCNc3ccnc4cc(Cl)ccc34)[C@H]2O)[C@](C)(O)C[C@@H](C)CN(C)[C@H](C)[C@@H](O)[C@]1(C)O | > 64 µg/mL | > 64 µg/mL | > 50000 nM | 9 | 636 nM | 9 | > 64 µg/mL | > 64 µg/mL | > 64 µg/mL | 295 nM | – | – | – | – | – | – | – | – | – | – |
| CC[C@H]1OC(=O)[C@H](C)[C@@H](O[C@H]2C[C@@](C)(OC)[C@@H](O)[C@H](C)O2)[C@H](C)[C@@H](O[C@@H]2O[C@H](C)C[C@H](N(C)C)[C@H]2O)[C@](C)(O)C[C@@H](C)CN(C)[C@H](C)[C@@H](O)[C@]1(C)O [AZITHROMYCIN] | 0.125 µg/mL (≈ 0.167 µM) | 1 µg/mL (≈ 1.34 µM) | 203000 nM | – | 11500 nM | – | 0.06 µg/mL (≈ 0.0801 µM) | 0.06 µg/mL (≈ 0.0801 µM) | 2 µg/mL (≈ 2.67 µM) | 2680 nM | – | – | – | – | – | – | – | – | – | – |
| CC[C@H]1OC(=O)[C@H](C)[C@@H](O[C@H]2C[C@@](C)(OC)[C@@H](O)[C@H](C)O2)[C@H](C)[C@@H](O[C@@H]2O[C@H](C)C[C@H](N(C)C(=O)CCCNc3ccnc4cc(Cl)ccc34)[C@H]2O)[C@](C)(O)C[C@@H](C)CN(C)[C@H](C)[C@@H](O)[C@]1(C)O | 16 µg/mL (≈ 16.3 µM) | > 64 µg/mL | > 50000 nM | 111 | 104 nM | 29 | 8 µg/mL (≈ 8.15 µM) | 4 µg/mL (≈ 4.07 µM) | > 64 µg/mL | 93 nM | 5 | – | – | – | – | – | – | – | – | – |
| CC[C@H]1OC(=O)[C@H](C)[C@@H](O)[C@H](C)[C@@H](O[C@@H]2O[C@H](C)C[C@H](N(C)CCCNc3ccnc4cc(Cl)ccc34)[C@H]2O)[C@](C)(O)C[C@@H](C)CN(C)[C@H](C)[C@@H](O)[C@]1(C)O | > 64 µg/mL | > 64 µg/mL | 14000 nM | – | – | – | > 64 µg/mL | 32 µg/mL (≈ 40.2 µM) | > 64 µg/mL | – | – | – | – | – | – | – | – | – | – | – |
| CC[C@H]1OC(=O)[C@H](C)[C@@H](O[C@H]2C[C@@](C)(OC)[C@@H](O)[C@H](C)O2)[C@H](C)[C@@H](O[C@@H]2O[C@H](C)C[C@H](N(C)CCCNC(=O)CCCNc3ccnc4cc(Cl)ccc34)[C@H]2O)[C@](C)(O)C[C@@H](C)CN(C)[C@H](C)[C@@H](O)[C@]1(C)O | 16 µg/mL (≈ 15.4 µM) | > 64 µg/mL | > 50000 nM | 56 | 77 nM | 150 | 4 µg/mL (≈ 3.85 µM) | 4 µg/mL (≈ 3.85 µM) | > 64 µg/mL | 48 nM | 9 | 47.7 mL/min/kg | 1 | 116 L/kg | < 0.6 mL/min/g | 5% | < 0.6 mL/min/g | < 0.6 mL/min/g | 13.28 ng·h/mL | 63.9 h |
| CC[C@H]1OC(=O)[C@H](C)[C@@H](O[C@H]2C[C@@](C)(OC)[C@@H](O)[C@H](C)O2)[C@H](C)[C@@H](O[C@@H]2O[C@H](C)C[C@H](N(C)CCCNc3ccnc4cc(Cl)ccc34)[C@H]2O)[C@](C)(O)C[C@@H](C)CN(C)[C@H](C)[C@@H](O)[C@]1(C)O | 16 µg/mL (≈ 16.8 µM) | > 64 µg/mL | 3000 nM | – | – | – | 8 µg/mL (≈ 8.39 µM) | 1 µg/mL (≈ 1.05 µM) | > 64 µg/mL | – | – | – | – | – | – | – | – | – | – | – |
| CC[C@H]1OC(=O)[C@H](C)[C@@H](O[C@H]2C[C@@](C)(OC)[C@@H](O)[C@H](C)O2)[C@H](C)[C@@H](O[C@@H]2O[C@H](C)C[C@H](N(C)Cc3cn(CCCNc4ccnc5cc(Cl)ccc45)nn3)[C@H]2O)[C@](C)(O)C[C@@H](C)CN(C)[C@H](C)[C@@H](O)[C@]1(C)O | 0.5 µg/mL (≈ 0.483 µM) | 16 µg/mL (≈ 15.5 µM) | – | – | – | – | 0.5 µg/mL (≈ 0.483 µM) | 2 µg/mL (≈ 1.93 µM) | > 64 µg/mL | – | – | – | – | – | – | – | – | – | – | – |
| CC[C@H]1OC(=O)[C@H](C)[C@@H](O[C@H]2C[C@@](C)(OC)[C@@H](O)[C@H](C)O2)[C@H](C)[C@@H](O[C@@H]2O[C@H](C)C[C@H](N(C)C(=O)CNc3ccnc4cc(Cl)ccc34)[C@H]2O)[C@](C)(O)C[C@@H](C)CN(C)[C@H](C)[C@@H](O)[C@]1(C)O | 4 µg/mL (≈ 4.19 µM) | 16 µg/mL (≈ 16.8 µM) | 27000 nM | – | 10 nM | – | 2 µg/mL (≈ 2.1 µM) | 8 µg/mL (≈ 8.39 µM) | > 64 µg/mL | 13 nM | – | – | – | – | – | – | – | – | – | – |
